Measurements taken from patent US5792799A, “Parenteral delivery of MAO A inhibitors” (Athena Neurosciences, Inc., priority 1996, dated 1998).
Values joined by “and” are separate entries in the source; they are usually repeats but may differ in a detail not shown here. Equal values may be shown once.

Tests used:
[1] = test system: MAO A; assay: Effect of repeated s.c. or oral administration of clorgyline on MAO A activity in striatum, intestine and liver (Example 3); assay type: in vivo, mice; conditions: for MAO A inhibition in the liver: single or multiple
Experimental: (§1) MAO A and MAO B activity were measured as previously described (Yu and Hertz, J. Neurochem. 39:1492-5 (1982)), using 14C-phenylethylamine and 14C-5-hydroxytryptamine as selective substrates for MAO B and MAO A, respectively. Preliminary experiments were performed to ensure that enzyme activity was linear with respect to time and enzyme concentration, and that no more than 10-20% of the substrate was consumed during the incubation period (data not shown). Protein was measured by the method of Lowry et al. (J. Biol. Chem. 193:265-75 (1951)).
MAO A activity was measured and compared in the striatum, intestine and liver.

[2] = test system: MAO A; assay: Comparison of parenteral (s.c.) and oral clorgyline on MAO A activity in striatum, gut and liver (Example 2); assay type: in vivo, mice; conditions: for MAO activity in the striatum, % of control values: mouse striatum; for extent of inhibition of intestinal MAO A activity: mouse intestine
Experimental: as §1

[3] = test system: MAO A; assay: MAO A activity in mouse striatum, liver and gut after subcutaneous clorgyline (Example 1); assay type: in vivo, C57BL/6 mice
Experimental: All experiments were performed in strict accordance with the National Institutes of Health (NIH) Guide for the Care and Use of Laboratory Animals. C57BL/6 mice were housed under constant temperature (22° C.) and humidity conditions in a room illuminated for 12 hours per day, with food and water freely available. […] Animals were sacrificed five hours after drug administration. Brains were removed, and dissection of the striata was performed within two minutes of cervical dislocation. Tissues were collected in buffer (pH 7.2), sonicated for approximately 10 seconds, and stored at -70° C. Similar procedures were used to collect, homogenize and store samples from the liver and gut of the animals.
as §1

[4] = 0.6 mg/kg oral, single administration, 5 h
[5] = 0.6 mg/kg, s.c. or oral, mouse liver
[6] = 0.6 mg/kg parenteral (s.c.), 5 h

C#CCN(C)CCCOc1ccc(Cl)cc1Cl [clorgyline]
intestine MAO A, % of control activity ([1]; 0.6 mg/kg oral, multiple administration (five, every 24 h), 5 h after last): ~15 % of control
intestine MAO A, % of control activity [1, 4]: Approximately 20 % of control
striatal MAO A inhibition [1, 4]: 15%
MAO A inhibition in the liver ([1]; 0.6 mg/kg oral): ≤ 25%
striatal MAO A residual activity, % of control ([1]; 0.6 mg/kg per os, multiple treatments (five, every 24 h), 5 h after last): about 50 % of control
striatal MAO A activity, % of the control value ([1]; 0.6 mg/kg s.c., five consecutive treatments every 24 h, 5 h after last): 2 % of control
inhibition of intestinal MAO A ([1]; 0.6 mg/kg s.c., injected once, 5 h): 50%
striatal MAO A inhibition ([1]; 0.6 mg/kg s.c., single administration, 5 h): approximately 90%
MAO A inhibition in the liver ([1]; 0.6 mg/kg subcutaneous): ≤ 25%
change in extent of MAO inhibition in the liver, single versus multiple treatments [1, 5]: no significant changes
MAO activity in the striatum, % of control values ([2]; 0.6 mg/kg oral gavage, 5 h): 40 % of control
extent of inhibition of intestinal MAO A activity ([2]; 0.6 mg/kg oral, 5 h): 89%
extent of inhibition of intestinal MAO A activity [2, 6]: 55%
MAO activity in the striatum, % of control values [2, 6]: 11 % of control
MAO A activity maintained in the gut ([2]; 0.6 mg/kg parenteral injection, mouse gut): 50%
difference in extent of inhibition of MAO A activity in the liver, oral compared with subcutaneous ([2]; 0.6 mg/kg, 5 h, mouse liver): No significant difference
MAO A activity present in the liver after clorgyline exposure [2, 5]: more than 50%
MAO A activity remaining in the gut ([3]; 0.6 mg/kg s.c., 5 h after dose, mouse gut): 50% and > 50%
MAO A activity remaining in the liver ([3]; 0.6 mg/kg s.c., 5 h after dose, mouse liver): > 50%
inhibition of MAO A activity in the striatum ([3]; 0.6 mg/kg s.c., 5 h after dose, mouse striatum): 90% and > 90%
MAO A inhibition in the gut ([3]; 0.6 mg/kg s.c., mouse gut): approximately 50%
MAO A inhibition in the liver ([3]; 0.6 mg/kg s.c., mouse liver): approximately 50%
MAO A activity in the gut ([3]; 0.8 mg/kg s.c., 5 h after dose, mouse gut): 31%
MAO A activity in the liver ([3]; 0.8 mg/kg s.c., 5 h after dose, mouse liver): about 50%
MAO activity in the gut, % of control ([3]; 1 mg/kg s.c., 5 h after dose, mouse gut): 27 % of control
MAO activity in the liver, % of control ([3]; 1 mg/kg s.c., 5 h after dose, mouse liver): 51 % of control
MAO A inhibition in the striatum ([3]; 1 mg/kg s.c., 5 h after dose, mouse striatum): > 90%
